SMILES strings stand for the structures.

The first assay deals with LK-2. The assay is described as follows: relative viability (nuclei count vs DMSO), 5 days (fraction); higher = more cells survive. The following applies: first compound 0.4 µM. The method in brief:
(§1)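 Each reported value is a median over duplicate plates. It expresses relative viability: treated-well nuclei count divided by vehicle-well nuclei count. Lung cancer cell lines in 1536-well plates were dosed by pin tool a day after seeding, alone with one drug or with a fixed anchor-drug dose plus five library-drug doses (not always all listed) in √10 steps, and nuclei were counted after 5 days.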
`Clc1ccc(Nc2nnc(Cc3ccncc3)c3ccccc23)cc1` [Vatalanib] + COc1cccc2cc(-c3nc([C@H]4CC[C@H](C(=O)O)CC4)n4ncnc(N)c34)[nH]c12 [OSI-027] (partner 0.5 µM) yielded a relative viability of 0.214.
As to `Clc1ccc(Nc2nnc(Cc3ccncc3)c3ccccc23)cc1` [Vatalanib] + N=C(N)NC(=N)NCCc1ccccc1 [Phenformin] (partner 250 µM), the relative viability was determined as 0.381.
As for `Clc1ccc(Nc2nnc(Cc3ccncc3)c3ccccc23)cc1` [Vatalanib] + Nc1nc2[nH]cc(CCc3ccc(C(=O)N[C@@H](CCC(=O)O)C(=O)O)cc3)c2c(=O)[nH]1 [Pemetrexed] (partner 0.2 µM), the relative viability turned out to be 0.319.

Staying with this assay, now noted: first compound 1.265 µM.
On to `COc1cc(N2CCC(C(N)=O)CC2)ccc1Nc1nc(N)c(Cl)c(Nc2ccccc2S(=O)(=O)C(C)C)n1` [HG-5-88-01] + N=C(N)NC(=N)NCCc1ccccc1 [Phenformin] (partner 250 µM), for which the relative viability was 0.352.
Same read-out and setting: under `Clc1ccc(Nc2nnc(Cc3ccncc3)c3ccccc23)cc1` [Vatalanib] + COc1cccc2cc(-c3nc([C@H]4CC[C@H](C(=O)O)CC4)n4ncnc(N)c34)[nH]c12 [OSI-027] (partner 0.5 µM) stands 0.196; under `Clc1ccc(Nc2nnc(Cc3ccncc3)c3ccccc23)cc1` [Vatalanib] + N=C(N)NC(=N)NCCc1ccccc1 [Phenformin] (partner 250 µM), 0.466; under `Clc1ccc(Nc2nnc(Cc3ccncc3)c3ccccc23)cc1` [Vatalanib] + Nc1nc2[nH]cc(CCc3ccc(C(=O)N[C@@H](CCC(=O)O)C(=O)O)cc3)c2c(=O)[nH]1 [Pemetrexed] (partner 0.2 µM), 0.235.

Staying with this assay, now noted: first compound 4 µM.
For `COc1cc(N2CCC(C(N)=O)CC2)ccc1Nc1nc(N)c(Cl)c(Nc2ccccc2S(=O)(=O)C(C)C)n1` [HG-5-88-01] + N=C(N)NC(=N)NCCc1ccccc1 [Phenformin] (partner 250 µM), the relative viability was 0.198.
For the compound `Clc1ccc(Nc2nnc(Cc3ccncc3)c3ccccc23)cc1` [Vatalanib] + COc1cccc2cc(-c3nc([C@H]4CC[C@H](C(=O)O)CC4)n4ncnc(N)c34)[nH]c12 [OSI-027] (partner 0.5 µM), the relative viability was determined as 0.198.
On the same count and under the same terms, as for `Clc1ccc(Nc2nnc(Cc3ccncc3)c3ccccc23)cc1` [Vatalanib] + N=C(N)NC(=N)NCCc1ccccc1 [Phenformin] (partner 250 µM), the figure is 0.393.
`Clc1ccc(Nc2nnc(Cc3ccncc3)c3ccccc23)cc1` [Vatalanib] + Nc1nc2[nH]cc(CCc3ccc(C(=O)N[C@@H](CCC(=O)O)C(=O)O)cc3)c2c(=O)[nH]1 [Pemetrexed] (partner 0.2 µM) showed a relative viability of 0.207.

In the next assay the test system is NCI-H2170. Described as above. As to conditions: first compound 0.04 µM. Summed up: as §1
Turning to `COc1cc(N2CCC(C(N)=O)CC2)ccc1Nc1nc(N)c(Cl)c(Nc2ccccc2S(=O)(=O)C(C)C)n1` [HG-5-88-01] + N=C(N)NC(=N)NCCc1ccccc1 [Phenformin] (partner 250 µM), the relative viability came out at 0.466.
Still for that read-out and setting: as for `Clc1ccc(Nc2nnc(Cc3ccncc3)c3ccccc23)cc1` [Vatalanib] + COc1cccc2cc(-c3nc([C@H]4CC[C@H](C(=O)O)CC4)n4ncnc(N)c34)[nH]c12 [OSI-027] (partner 0.5 µM), the figure is 0.707; as for `Clc1ccc(Nc2nnc(Cc3ccncc3)c3ccccc23)cc1` [Vatalanib] + N=C(N)NC(=N)NCCc1ccccc1 [Phenformin] (partner 250 µM), 0.437; as for `Clc1ccc(Nc2nnc(Cc3ccncc3)c3ccccc23)cc1` [Vatalanib] + Nc1nc2[nH]cc(CCc3ccc(C(=O)N[C@@H](CCC(=O)O)C(=O)O)cc3)c2c(=O)[nH]1 [Pemetrexed] (partner 0.2 µM), 0.328.

The same assay, now with this note: first compound 0.1265 µM.
Compound `COc1cc(N2CCC(C(N)=O)CC2)ccc1Nc1nc(N)c(Cl)c(Nc2ccccc2S(=O)(=O)C(C)C)n1` [HG-5-88-01] + N=C(N)NC(=N)NCCc1ccccc1 [Phenformin] (partner 250 µM) gave a relative viability of 0.442.
Same read-out and setting: as for `Clc1ccc(Nc2nnc(Cc3ccncc3)c3ccccc23)cc1` [Vatalanib] + COc1cccc2cc(-c3nc([C@H]4CC[C@H](C(=O)O)CC4)n4ncnc(N)c34)[nH]c12 [OSI-027] (partner 0.5 µM), the figure is 0.743; as for `Clc1ccc(Nc2nnc(Cc3ccncc3)c3ccccc23)cc1` [Vatalanib] + N=C(N)NC(=N)NCCc1ccccc1 [Phenformin] (partner 250 µM), 0.476.
The compound `Clc1ccc(Nc2nnc(Cc3ccncc3)c3ccccc23)cc1` [Vatalanib] + Nc1nc2[nH]cc(CCc3ccc(C(=O)N[C@@H](CCC(=O)O)C(=O)O)cc3)c2c(=O)[nH]1 [Pemetrexed] (partner 0.2 µM) returned a relative viability of 0.289.

Still in this assay, the particulars now being: first compound 0.4 µM.
In the case of `COc1cc(N2CCC(C(N)=O)CC2)ccc1Nc1nc(N)c(Cl)c(Nc2ccccc2S(=O)(=O)C(C)C)n1` [HG-5-88-01] + N=C(N)NC(=N)NCCc1ccccc1 [Phenformin] (partner 250 µM), the relative viability came out at 0.461.
Still for that read-out and setting: as for `Clc1ccc(Nc2nnc(Cc3ccncc3)c3ccccc23)cc1` [Vatalanib] + COc1cccc2cc(-c3nc([C@H]4CC[C@H](C(=O)O)CC4)n4ncnc(N)c34)[nH]c12 [OSI-027] (partner 0.5 µM), the figure is 0.782.
The compound `Clc1ccc(Nc2nnc(Cc3ccncc3)c3ccccc23)cc1` [Vatalanib] + N=C(N)NC(=N)NCCc1ccccc1 [Phenformin] (partner 250 µM) displayed a relative viability of 0.469.
Still for that read-out and setting: under `Clc1ccc(Nc2nnc(Cc3ccncc3)c3ccccc23)cc1` [Vatalanib] + Nc1nc2[nH]cc(CCc3ccc(C(=O)N[C@@H](CCC(=O)O)C(=O)O)cc3)c2c(=O)[nH]1 [Pemetrexed] (partner 0.2 µM) stands 0.273.

The same assay, now with this note: first compound 1.265 µM.
The compound `COc1cc(N2CCC(C(N)=O)CC2)ccc1Nc1nc(N)c(Cl)c(Nc2ccccc2S(=O)(=O)C(C)C)n1` [HG-5-88-01] + N=C(N)NC(=N)NCCc1ccccc1 [Phenformin] (partner 250 µM) had a relative viability of 0.304.
The same measure, in the same setting: as for `Clc1ccc(Nc2nnc(Cc3ccncc3)c3ccccc23)cc1` [Vatalanib] + COc1cccc2cc(-c3nc([C@H]4CC[C@H](C(=O)O)CC4)n4ncnc(N)c34)[nH]c12 [OSI-027] (partner 0.5 µM), the figure is 0.63.
Same read-out and setting: as for `Clc1ccc(Nc2nnc(Cc3ccncc3)c3ccccc23)cc1` [Vatalanib] + N=C(N)NC(=N)NCCc1ccccc1 [Phenformin] (partner 250 µM), the figure is 0.405.
In turn, `Clc1ccc(Nc2nnc(Cc3ccncc3)c3ccccc23)cc1` [Vatalanib] + Nc1nc2[nH]cc(CCc3ccc(C(=O)N[C@@H](CCC(=O)O)C(=O)O)cc3)c2c(=O)[nH]1 [Pemetrexed] (partner 0.2 µM) showed a relative viability of 0.292.

Staying with this assay, now noted: first compound 4 µM.
For `COc1cc(N2CCC(C(N)=O)CC2)ccc1Nc1nc(N)c(Cl)c(Nc2ccccc2S(=O)(=O)C(C)C)n1` [HG-5-88-01] + N=C(N)NC(=N)NCCc1ccccc1 [Phenformin] (partner 250 µM), the relative viability came to 0.352.
Take `Clc1ccc(Nc2nnc(Cc3ccncc3)c3ccccc23)cc1` [Vatalanib] + COc1cccc2cc(-c3nc([C@H]4CC[C@H](C(=O)O)CC4)n4ncnc(N)c34)[nH]c12 [OSI-027] (partner 0.5 µM): the relative viability turned out to be 0.769.
Still for that read-out and setting: as for `Clc1ccc(Nc2nnc(Cc3ccncc3)c3ccccc23)cc1` [Vatalanib] + N=C(N)NC(=N)NCCc1ccccc1 [Phenformin] (partner 250 µM), the figure is 0.353.

The values are drawn from the supplement of paper PMC10307832.
